Legend:
5637 = assay: cells; assay type: functional, cell-based; conditions: Homo sapiens
Description: SANGER: Inhibition of human 5637 cell growth in a cell viability assay.

ChaGo-K-1 = assay: cells; assay type: functional, cell-based; conditions: Homo sapiens;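 also: growth inhibition of ChaGo-K-1 cells, read out with a cell viability assay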
Description: SANGER: Inhibition of human ChaGo-K-1 cell growth in a cell viability assay.

SR = assay: cells; assay type: functional, cell-based; conditions: Homo sapiens
Description: SANGER: Inhibition of human SR cell growth in a cell viability assay.

JEG-3 = assay: cells; assay type: functional, cell-based; conditions: Homo sapiens;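 also: growth inhibition of human JEG-3 cells, read out with a cell viability assay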
Description: SANGER: Inhibition of human JEG-3 cell growth in a cell viability assay.

NCI-H719 = assay: cells; assay type: functional, cell-based; conditions: Homo sapiens;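 also: growth inhibition of the cultured cell line, read out with a viability assay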
Description: SANGER: Inhibition of human NCI-H719 cell growth in a cell viability assay.

SAOS-2 = assay: cells; assay type: functional, cell-based; conditions: Homo sapiens;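 also: growth inhibition of human Saos-2 cells determined by a cell viability assay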
Description: SANGER: Inhibition of human Saos-2 cell growth in a cell viability assay.

MC-CAR = assay: cells; assay type: functional, cell-based; conditions: Homo sapiens;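 also: growth inhibition of the human MC-CAR cell line, read out by a cell viability assay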
Description: SANGER: Inhibition of human MC-CAR cell growth in a cell viability assay.

SW756 = assay: cells; assay type: functional, cell-based; conditions: Homo sapiens;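 also: growth inhibition of human SW756 cells, read out with a cell viability assay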
Description: SANGER: Inhibition of human SW756 cell growth in a cell viability assay.

NCI-H727 = assay: cells; assay type: functional, cell-based; conditions: Homo sapiens;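 also: growth inhibition of human NCI-H727 cells, read out with a cell viability assay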
Description: SANGER: Inhibition of human NCI-H727 cell growth in a cell viability assay.

CAL-12T = assay: cells; assay type: functional, cell-based, Homo sapiens; conditions: Homo sapiens, CAL-12T;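 also: growth inhibition of human CAL-12T cells, read out with a cell viability assay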
Description: SANGER: Inhibition of human CAL-12T cell growth in a cell viability assay.

IST-SL2 = assay: cells; assay type: functional, cell-based; conditions: Homo sapiens;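 also: growth inhibition of human IST-SL2 cells, read out by a cell viability assay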
Description: SANGER: Inhibition of human IST-SL2 cell growth in a cell viability assay.

GAMG = assay: cells; assay type: functional, cell-based; conditions: Homo sapiens;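 also: cell growth inhibition measured by a viability assay in the GAMG human cell line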
Description: SANGER: Inhibition of human GAMG cell growth in a cell viability assay.

SW837 = assay: cells; assay type: functional, cell-based; conditions: Homo sapiens;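 also: growth inhibition of SW837 cells, determined with a cell viability assay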
Description: SANGER: Inhibition of human SW837 cell growth in a cell viability assay.

HTC-C3 = assay: cells; assay type: functional, cell-based; conditions: Homo sapiens;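 also: inhibition of cell growth, read out with a cell viability assay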
Description: SANGER: Inhibition of human HTC-C3 cell growth in a cell viability assay.

TE-15 = assay: cells; assay type: functional, cell-based; conditions: Homo sapiens;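 also: cell viability readout of growth inhibition in TE-15 cells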
Description: SANGER: Inhibition of human TE-15 cell growth in a cell viability assay.

NCCIT = assay: SANGER: Inhibition of human NCCIT cell growth in a cell viability assay.; assay type: functional, cell-based
SBC-5 = assay: cells; assay type: functional, cell-based; conditions: Homo sapiens;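 also: cell viability assay read-out, IC50 is the concentration that inhibits growth of the cells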
Description: SANGER: Inhibition of human SBC-5 cell growth in a cell viability assay.

IGROV-1 = assay: cells; assay type: functional, cell-based; conditions: Homo sapiens;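 also: reduction of IGROV-1 cell growth, read out with a viability assay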
Description: SANGER: Inhibition of human IGROV-1 cell growth in a cell viability assay.

NCI-H1437 = assay: cells; assay type: functional, cell-based; conditions: Homo sapiens;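 also: growth inhibition of human NCI-H1437 cells, read out by a cell viability assay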
Description: SANGER: Inhibition of human NCI-H1437 cell growth in a cell viability assay.

PC-3 = assay: cells; assay type: functional, cell-based; conditions: Homo sapiens;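 also: cell viability assay measuring growth inhibition of PC-3 cells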
Description: SANGER: Inhibition of human PC-3 cell growth in a cell viability assay.

NCI-H630 = assay: cells; assay type: functional, cell-based; conditions: Homo sapiens;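 also: growth inhibition of NCI-H630 cells, read out with a cell viability assay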
Description: SANGER: Inhibition of human NCI-H630 cell growth in a cell viability assay.

A673 = assay: cells; assay type: functional, cell-based; conditions: Homo sapiens;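 also: growth inhibition of human A673 cells, read out through a cell viability assay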
Description: SANGER: Inhibition of human A673 cell growth in a cell viability assay.

MKN-28 = assay: cells; assay type: functional, cell-based; conditions: Homo sapiens;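 also: cell viability assay read-out, IC50 reflects suppression of growth of human MKN-28 cells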
Description: SANGER: Inhibition of human MKN28 cell growth in a cell viability assay.

MDA-MB-453 = assay: cells; assay type: functional, cell-based; conditions: Homo sapiens
Description: SANGER: Inhibition of human MDA-MB-453 cell growth in a cell viability assay.

JIYOYE = assay: cells; assay type: functional, cell-based; conditions: Homo sapiens
Description: SANGER: Inhibition of human JiyoyeP-2003 cell growth in a cell viability assay.

NCI-H1522 = assay: cells; assay type: functional, cell-based; conditions: Homo sapiens;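 also: growth inhibition of NCI-H1522 cells, read out with a cell viability assay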
Description: SANGER: Inhibition of human NCI-H1522 cell growth in a cell viability assay.

SW1463 = assay: cells; assay type: functional, cell-based; conditions: Homo sapiens;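 also: growth inhibition of SW1463 cells, determined with a cell viability assay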
Description: SANGER: Inhibition of human SW1463 cell growth in a cell viability assay.

EFM-19 = assay: cells; assay type: functional, cell-based; conditions: Homo sapiens;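 also: growth inhibition of human EFM-19 cells, measured in a cell viability assay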
Description: SANGER: Inhibition of human EFM-19 cell growth in a cell viability assay.

NUGC-3 = assay: cells; assay type: functional, cell-based; conditions: Homo sapiens;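 also: growth inhibition of human NUGC-3 cells, read out with a cell viability assay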
Description: SANGER: Inhibition of human NUGC-3 cell growth in a cell viability assay.

CAL-148 = assay: cells; assay type: functional, cell-based; conditions: Homo sapiens
Description: SANGER: Inhibition of human CAL-148 cell growth in a cell viability assay.

SW1573 = assay: cells; assay type: functional, cell-based; conditions: Homo sapiens;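 also: growth inhibition of SW1573 cells, read out with a cell viability assay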
Description: SANGER: Inhibition of human SW1573 cell growth in a cell viability assay.

AGS = assay: cells; assay type: functional, cell-based; conditions: Homo sapiens;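 also: growth inhibition of AGS cells, determined with a cell viability assay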
Description: SANGER: Inhibition of human AGS cell growth in a cell viability assay.

G-401 = assay: cells; assay type: functional, cell-based; conditions: Homo sapiens
Description: SANGER: Inhibition of human G-401 cell growth in a cell viability assay.

YT = assay: cells; assay type: functional, cell-based; conditions: Homo sapiens
Description: SANGER: Inhibition of human YT cell growth in a cell viability assay.

NCI-H522 = assay: cells; assay type: functional, cell-based; conditions: Homo sapiens;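 also: cell viability assay measuring growth inhibition of human NCI-H522 cells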
Description: SANGER: Inhibition of human NCI-H522 cell growth in a cell viability assay.

MHH-CALL-2 = assay: cells; assay type: functional, cell-based; conditions: Homo sapiens;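 also: growth inhibition of the cell line, read out in a cell viability assay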
Description: SANGER: Inhibition of human MHH-CALL-2 cell growth in a cell viability assay.

Raji = assay: cells; assay type: functional, cell-based; conditions: Homo sapiens;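 also: cell viability assay measuring inhibition of Raji cell growth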
Description: SANGER: Inhibition of human Raji cell growth in a cell viability assay.

KP-4 = assay: cells; assay type: functional, cell-based; conditions: Homo sapiens;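 also: human KP-4 cells, with growth inhibition read out through a cell viability assay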
Description: SANGER: Inhibition of human KP-4 cell growth in a cell viability assay.

Detroit 562 = assay: cells; assay type: functional, cell-based; conditions: Homo sapiens;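 also: growth inhibition of human Detroit 562 cells, read out by a cell viability assay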
Description: SANGER: Inhibition of human Detroit562 cell growth in a cell viability assay.

SKG-IIIa = assay: cells; assay type: functional, cell-based; conditions: Homo sapiens;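 also: cell growth inhibition, read out with a cell viability assay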
Description: SANGER: Inhibition of human SKG-IIIa cell growth in a cell viability assay.

BCPAP = assay: cells; assay type: functional, cell-based; conditions: Homo sapiens;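 also: growth inhibition of BCPAP cells, read out in a cell viability assay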
Description: SANGER: Inhibition of human BCPAP cell growth in a cell viability assay.

NCI-H187 = assay: cells; assay type: functional, cell-based; conditions: Homo sapiens;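 also: growth inhibition of NCI-H187 cells, read out as cell viability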
Description: SANGER: Inhibition of human NCI-H187 cell growth in a cell viability assay.

MHH-ES-1 = assay: cells; assay type: functional, cell-based; conditions: Homo sapiens
Description: SANGER: Inhibition of human MHH-ES-1 cell growth in a cell viability assay.

VM-CUB-1 = assay: cells; assay type: functional, cell-based; conditions: Homo sapiens;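 also: cell viability assay measuring growth inhibition of the human VM-CUB-1 cell line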
Description: SANGER: Inhibition of human VM-CUB-1 cell growth in a cell viability assay.

NCI-H358 = assay: cells; assay type: functional, cell-based; conditions: Homo sapiens;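 also: growth inhibition of NCI-H358 human cells, read out with a cell viability assay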
Description: SANGER: Inhibition of human NCI-H358 cell growth in a cell viability assay.

HOS = assay: cells; assay type: functional, cell-based; conditions: Homo sapiens;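 also: growth inhibition of human HOS cells, read out with a cell viability assay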
Description: SANGER: Inhibition of human HOS cell growth in a cell viability assay.

MONO-MAC-6 = assay: cells; assay type: functional, cell-based; conditions: Homo sapiens;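 also: cell viability assay measuring growth inhibition of human MONO-MAC-6 cells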
Description: SANGER: Inhibition of human MONO-MAC-6 cell growth in a cell viability assay.

T-24 = assay: cells; assay type: functional, cell-based; conditions: Homo sapiens;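 also: growth inhibition of T-24 cells, read out with a cell viability assay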
Description: SANGER: Inhibition of human T-24 cell growth in a cell viability assay.

HCC1937 = assay: cells; assay type: functional, cell-based; conditions: Homo sapiens;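 also: growth inhibition measured with a cell viability read-out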
Description: SANGER: Inhibition of human HCC1937 cell growth in a cell viability assay.

MFE-280 = assay: cells; assay type: functional, cell-based; conditions: Homo sapiens;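 also: growth inhibition of MFE-280 cells, determined with a cell viability readout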
Description: SANGER: Inhibition of human MFE-280 cell growth in a cell viability assay.

NCI-H1755 = assay: cells; assay type: functional, cell-based; conditions: Homo sapiens;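 also: cell viability readout used to measure growth inhibition of NCI-H1755 cells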
Description: SANGER: Inhibition of human NCI-H1755 cell growth in a cell viability assay.

NCI-H1793 = assay: cells; assay type: functional, cell-based; conditions: Homo sapiens;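 also: cell growth inhibition, read out by a cell viability assay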
Description: SANGER: Inhibition of human NCI-H1793 cell growth in a cell viability assay.

MRK-nu-1 = assay: cells; assay type: functional, cell-based; conditions: Homo sapiens;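 also: cell viability assay measuring growth suppression of human MRK-nu-1 cells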
Description: SANGER: Inhibition of human MRK-nu-1 cell growth in a cell viability assay.

NCI-H2030 = assay: cells; assay type: functional, cell-based; conditions: Homo sapiens;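 also: growth inhibition of human NCI-H2030 cells, read out by a cell viability assay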
Description: SANGER: Inhibition of human NCI-H2030 cell growth in a cell viability assay.

SCC-25 = assay: cells; assay type: functional, cell-based; conditions: Homo sapiens;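 also: growth inhibition of SCC-25 cells, measured with a cell viability assay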
Description: SANGER: Inhibition of human SCC-25 cell growth in a cell viability assay.

BHT-101 = assay: cells; assay type: functional, cell-based; conditions: Homo sapiens
Description: SANGER: Inhibition of human BHT-101 cell growth in a cell viability assay.

HN = assay: cells; assay type: functional, cell-based; conditions: Homo sapiens
Description: SANGER: Inhibition of human HN cell growth in a cell viability assay.

NCI-H2081 = assay: cells; assay type: functional, cell-based; conditions: Homo sapiens;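 also: growth inhibition of human NCI-H2081 cells, read out with a cell viability assay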
Description: SANGER: Inhibition of human NCI-H2081 cell growth in a cell viability assay.

NCI-H1417 = assay: cells; assay type: functional, cell-based; conditions: Homo sapiens;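 also: human NCI-H1417 cells, growth inhibition determined with a cell viability readout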
Description: SANGER: Inhibition of human NCI-H1417 cell growth in a cell viability assay.

NCI-H520 = assay: cells; assay type: functional, cell-based; conditions: Homo sapiens;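 also: growth inhibition of NCI-H520 cells, measured by a cell viability assay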
Description: SANGER: Inhibition of human NCI-H520 cell growth in a cell viability assay.

KYSE-180 = assay: cells; assay type: functional, cell-based; conditions: Homo sapiens;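 also: growth inhibition of KYSE-180 cells, read out with a cell viability assay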
Description: SANGER: Inhibition of human KYSE-180 cell growth in a cell viability assay.

FTC-133 = assay: cells; assay type: functional, cell-based; conditions: Homo sapiens
EB2 = assay: cells; assay type: functional, cell-based; conditions: Homo sapiens
Description: SANGER: Inhibition of human EB2 cell growth in a cell viability assay.

HMV-2 cell line = assay: cells; assay type: functional, cell-based; conditions: Homo sapiens
Description: SANGER: Inhibition of human HMV-II cell growth in a cell viability assay.

KYSE-150 cell line = assay: cells; assay type: functional, cell-based; conditions: Homo sapiens
Description: SANGER: Inhibition of human KYSE-150 cell growth in a cell viability assay.

Fc1cc(-c2cc[nH]/c(=N/c3ccc(-n4cnc(N5CCOCC5)n4)cc3)n2)cc(N2CCOCC2)c1
IC50 5637: 5040 nM | IC50 (ChaGo-K-1): 1370 nM | IC50 (SR): 122 nM | IC50 (JEG-3): 705 nM | IC50 (NCI-H719): 2240 nM | IC50 (SAOS-2): 1780 nM | IC50 (MC-CAR): 380 nM | IC50 (SW756): 2060 nM | IC50 (NCI-H727): 647 nM | IC50 (CAL-12T): 2110 nM | IC50 (IST-SL2): 457 nM | IC50 (GAMG): 1340 nM | IC50 (SW837): 2950 nM | IC50 (HTC-C3): 1240 nM | IC50 (TE-15): 375 nM | IC50 (NCCIT): 398 nM | IC50 (SBC-5): 398 nM | IC50 (IGROV-1): 97.7 nM | IC50 (NCI-H1437): 243 nM | IC50 (PC-3): 4550 nM | IC50 (NCI-H630): 544 nM | IC50 (A673): 1120 nM | IC50 (MKN-28): 301 nM | IC50 (MDA-MB-453): > 5120 nM | IC50 (JIYOYE): 263 nM | IC50 (NCI-H1522): 889 nM | IC50 (SW1463): 649 nM | IC50 (EFM-19): 760 nM | IC50 (NUGC-3): 687 nM | IC50 (CAL-148): 4940 nM | IC50 (SW1573): 881 nM | IC50 (AGS): 415 nM | IC50 (G-401): 380 nM | IC50 (YT): 204 nM | IC50 (NCI-H522): 887 nM | IC50 (MHH-CALL-2): 762 nM | IC50 (Raji): 495 nM | IC50 (KP-4): 577 nM | IC50 (Detroit 562): 321 nM | IC50 (SKG-IIIa): 4890 nM | IC50 (BCPAP): 932 nM | IC50 (NCI-H187): 2790 nM | IC50 (MHH-ES-1): 274 nM | IC50 (VM-CUB-1): 3480 nM | IC50 (NCI-H358): 377 nM | IC50 (HOS): 613 nM | IC50 (MONO-MAC-6): 544 nM | IC50 (T-24): 2870 nM | IC50 (HCC1937): 1230 nM | IC50 (MFE-280): > 5120 nM | IC50 (NCI-H1755): 349 nM | IC50 (NCI-H1793): 1210 nM | IC50 (MRK-nu-1): 545 nM | IC50 (NCI-H2030): 169 nM | IC50 (SCC-25): 196 nM | IC50 (BHT-101): 667 nM | IC50 (HN): 4240 nM | IC50 (NCI-H2081): 1500 nM | IC50 (NCI-H1417): > 5120 nM | IC50 (NCI-H520): 467 nM | IC50 (KYSE-180): 272 nM | IC50 (FTC-133): > 5120 nM | IC50 (EB2): 581 nM | IC50 (HMV-2 cell line): 151 nM | IC50 (KYSE-150 cell line): 664 nM
